Paper PMC7063992, “Opossum Cathelicidins Exhibit Antimicrobial Activity Against a Broad Spectrum of Pathogens Including West Nile Virus” (Frontiers in Immunology, 2020)
No end group written: not given here.

Assays:
Assay type in all cases: cell-based
[1] = system: Human primary keratinocytes; experiment: Viability of keratinocytes, XTT; details: 24 h, XTT
Description: The Ethics Committee of the Poitiers Hospital approved the use of human skin samples for research studies. All subjects provided written informed consent in accordance with the tenets of the Declaration of Helsinki. Normal abdominal or breast skin samples were obtained from patients undergoing plastic surgery and thoroughly washed with PBS free of calcium and magnesium (PBS; Gibco, Thermo Fisher Scientific, Waltham, MA, United States) after fat removal. The skin samples were minced into fragments of approximately 125 mm^2, using scalpel blades. Skin samples were incubated overnight at 4°C in a dispase solution (25 U/mL; Life Technologies, Carlsbad, CA, United States). Epidermal sheets were removed from the dermis, and keratinocytes were dissociated via trypsin digestion (trypsin-EDTA; Gibco) for 15 min at 37°C. The cell suspension was then filtered through a 280-μm sterile filter. DMEM (Gibco) supplemented with 10% (vol/vol) of FBS (Gibco) was added, and the suspension was centrifuged at 300 × g and 25°C for 10 min. Keratinocytes were seeded at a density of 10^7 cells in 75-cm^2 tissue culture flask in keratinocyte-serum free medium (K-SFM; Invitrogen, Carlsbad, CA, United States) supplemented with bovine pituitary extract (25 μg/mL; Invitrogen) and recombinant epidermal growth factor (EGF) (0.25 ng/mL; Invitrogen). The cultures were incubated at 37°C in a humidified atmosphere with 5% CO2 until 80% confluence and then stored frozen in liquid nitrogen until use. Finally, keratinocytes were seeded in sterile 24-well culture plates at 10^5 cells/well in K-SFM supplemented with bovine pituitary extract and EGF and cultured to 80% confluence. Cells were then starved overnight in K-SFM alone before stimulation.
Primary keratinocytes were cultured in 96-well plates at 4 × 10^4 cells per well in 0.1 mL K-SFM (Invitrogen) up to 80% confluence before being treated with various concentrations of ModoCath peptides for 24 h. Cell viability was assessed using the cell proliferation kit II (XTT; Roche, Basel, Switzerland) in accordance with the manufacturer’s protocol. The XTT labeling mixture was added after 24 h of incubation in the absence or presence of peptides at the indicated concentrations.

[2] = system: Bacillus cereus ATCC 10876; experiment: microbe, parasite or virus in culture; details: B. cereus ATCC 10876; MHB, 37°C 6 h + 2 h; triplicate
Procedure: (§1) Peptides corresponding to the predicted antimicrobial regions of ModoCath1 (ΔModoCath1, N-VKRTKRGARRGL […]-C), ModoCath5 (ΔModoCath5, N-[…]-C), ModoCath6 (ΔModoCath6, N-[…]-C) and PMAP36 (N-[…] PLGCG-C) were synthesized via solid-phase peptide synthesis and purified via high-performance liquid chromatography using a commercial service (GenScript, Piscataway Township, NJ, United States). The MIC of synthesized peptides was determined against a panel of bacteria comprising 3 gram-positive strains, Staphylococcus aureus ATCC 6538 (ATCC, Manassas, VA, United States), Bacillus cereus ATCC 10876, and Enterococcus faecalis ATCC 29212, and 3 gram-negative strains, Escherichia coli ATCC 25922, Pseudomonas aeruginosa ATCC 27853, and Salmonella typhimurium ATCC 14028. Ampicillin (Sigma Aldrich, St. Louis, MO, United States) and gentamicin sulfate (Sigma Aldrich) were used as controls for antimicrobial activity. The MIC was determined using a colorimetric method specified by the Microbial Viability Assay Kit-WST (Dojindo, Kumamoto, Japan) in accordance with the manufacturer’s protocol and the Clinical and Laboratory Standards Institute (CLSI) guidelines (2018). Briefly, four colonies of each bacterium were inoculated into 5 mL Luria-Bertani (LB) broth medium at 37°C for 4 to 6 h. The cells were washed with sterile saline (0.9% NaCl) twice and seeded in a single well of a 96-well plate at the cell density of 10^5 CFU/well. Subsequently, 180 μL/well of fresh Mueller-Hinton broth (MHB) was added to the plate. Different concentrations of each peptide and reference antibiotics were serially diluted in 10 μL of MHB and added to each well. The plate was incubated at 37°C for 6 h. Cation-adjusted MH broth (CAMHB) was used to culture E. faecalis. Subsequently, 10 μL of the coloring reagent was added, and cells were incubated at 37°C for 2 h. UV absorbance was measured for each well at 450 nm, using a microplate spectrophotometer (xMark spectrophotometer; Bio-Rad, Hercules, CA, United States). MIC values were determined when the difference in the optical density (OD) between treatments and blanks (media and coloring reagent only) decreased to < 0.05. Experiments were conducted in triplicate. […] The pH conditions were achieved by using acetic acid (Sigma Aldrich).

[3] = system: Staphylococcus aureus ATCC 6538; experiment: microbe, parasite or virus in culture; details: S. aureus ATCC 6538; MHB, 37°C 6 h + 2 h; triplicate
Procedure: as §1

[4] = system: Escherichia coli ATCC 25922; experiment: microbe, parasite or virus in culture; details: E. coli ATCC 25922
Procedure: as §1

[5] = system: Enterococcus faecalis ATCC 29212; experiment: microbe, parasite or virus in culture; details: E. faecalis ATCC 29212; CAMHB, 37°C 6 h + 2 h; triplicate
Procedure: as §1

[6] = system: Salmonella typhimurium ATCC 14028; experiment: microbe, parasite or virus in culture; details: S. typhimurium ATCC 14028; MHB, 37°C 6 h + 2 h; triplicate
Procedure: as §1

[7] = system: Pseudomonas aeruginosa ATCC 27853; experiment: microbe, parasite or virus in culture; details: P. aeruginosa ATCC 27853; MHB, 37°C 6 h + 2 h; triplicate
Procedure: as §1

[8] = Control: MHB at pH 7.5 without any additives, value in brackets
[9] = value in brackets, MHB, 37°C 6 h + 2 h, triplicate

“VKRTKRGARRGLTKVLKKIFGSIVKKAVSKGV [ΔModoCath1]” was tested, and the “Cell viability ± SD” value ([1]; 8 μg/mL) was 97.1 ± 2.9%, the “Cell viability ± SD” value ([1]; 16 μg/mL) was 91.4 ± 1.6% and the “Cell viability ± SD” value ([1]; 32 μg/mL) was 56.2 ± 8.4%. The “Cell viability ± SD” value ([1]; 64 μg/mL) was 5.8 ± 3.7%, the MIC [2] was 30 (8.5) μg/mL and the MIC [3] was 3 (0.85) μg/mL. For the same sequence, the MIC ([4]; 1mM MgCl2, value in brackets) was 0.14 µM, the MIC ([4]; 2.5mM CaCl2, value in brackets) was 0.29 µM and the MIC ([4]; 4.5mM KCl, value in brackets) was 0.14 µM. For the same sequence, the MIC ([4]; 150mM NaCl, value in brackets) was 0.14 µM, the MIC [4, 8] was 0.21 µM and the MIC ([4]; pH 7, value in brackets) was 0.21 µM. The MIC [4, 9] was 0.21 µM, the MIC [5] was 2 (0.57) μg/mL and the MIC [6] was 2 (0.57) μg/mL. The MIC [7] was 2 (0.57) μg/mL.

“WYQLIRTFGNLIHQKYRKLLEAYRKLRD [ΔModoCath5]” was tested, and the “Cell viability ± SD” value ([1]; 8 μg/mL) was 98.1 ± 0.6%, the “Cell viability ± SD” value ([1]; 16 μg/mL) was 96.2 ± 3.5% and the “Cell viability ± SD” value ([1]; 32 μg/mL) was 79.1 ± 13.0%. The “Cell viability ± SD” value ([1]; 64 μg/mL) was 48.9 ± 15.5%, the MIC [2] was 6 (1.66) μg/mL and the MIC [3] was 1.5 (0.41) μg/mL. For the same sequence, the MIC ([4]; 1mM MgCl2, value in brackets) was 2.48 µM, the MIC ([4]; 150mM NaCl, value in brackets) was 2.07 µM and the MIC [4, 8] was 1.38 µM. For the same sequence, the MIC ([4]; pH 6, value in brackets) was 0.69 µM, the MIC ([4]; pH 7, value in brackets) was 1.38 µM and the MIC [4, 9] was 1.38 µM. For the same sequence, the MIC [5] was 2 (0.55) μg/mL, the MIC [6] was > 32(8.83) μg/mL and the MIC [7] was > 32(8.83) μg/mL.

In the case of “VRRSKRGIKVPSFVKKVLKDVVSESIS [ΔModoCath6]”, the “Cell viability ± SD” value ([1]; 8 μg/mL) was 98.0 ± 1.6%, the “Cell viability ± SD” value ([1]; 16 μg/mL) was 100.3 ± 1.3% and the “Cell viability ± SD” value ([1]; 32 μg/mL) was 101.0 ± 2.6%. For the same sequence, the “Cell viability ± SD” value ([1]; 64 μg/mL) was 89.2 ± 7.2%, the MIC [2] was > 32(10.51) μg/mL and the MIC [3] was > 32(10.51) μg/mL. The MIC ([4]; MHB, 10^5 CFU/well, 37°C 6 h + 2 h with coloring reagent, OD 450 nm, triplicate) was 5 (1.64) μg/mL, the MIC [5] was > 32(10.51) μg/mL and the MIC [6] was > 32(10.51) μg/mL. For the same sequence, the MIC [7] was > 32(10.51) μg/mL.
